Test system: Normal Human dermal fibroblasts
Experiment: Stimulation of collagen production: Procollagen Type-I C-Peptide EIA on conditioned media
Format: cell-based
Settings: 0.0005% compound, 48 hours, p<0.05
Experimental: Cell Treatment: Normal Human dermal fibroblasts were grown in DMEM (Mediatech; cat. #: 15-013-CV) containing 10% Fetal Bovine Serum (Perbio; cat. #: SH30070.03), Penicillin/Streptomycin (Mediatech, Cat #30-001-C1), L-Glutamine (Mediatech; cat. #: 25-005-CI) at 37° C. and 10% CO2. Cells were stripped of serum overnight, followed by treatment with the compound of Formula I(b) (0.0005%) or vehicle (DMSO), in the absence of serum for 48 hours.
Reading was measured at 450 nm using a spectrophotometer.
Human dermal fibroblasts treated with 0.0005% the compound of Formula I(b) for 48 hours were analyzed by ELISA for expression levels of pro-collagen. […] All values are statistically significant at p<0.05.

Compound: COc1ccc(Cc2nc(=O)c(CCC(=O)N3CCC(C)CC3)n[nH]2)cc1OC [Formula I(b)]
- pro-collagen, relative to control, vehicle treated cells (ELISA, result in words): significant increase
- Procollagen (serum-free, procollagen in conditioned media by ELISA, vehicle (DMSO) control = 100%): 146%
